Assay [1] has as its system MALT1-mediated cleavage of CYLD. Briefly: MALT1-mediated cleavage of CYLD in HBL-1 cells, Western blotting and densitometry. Format: cell-based, human. How it is done:
A total of 704 analog compounds from available libraries with similarity score ≧70% (Tanimoto similarity functions) were screened by LZ-MALT1 fluorescence assay.
(§1) Equal amounts of total protein (20-75 μg) were separated on sodium dodecyl sulfate-polyacrylamide gel electrophoresis (SDS-PAGE), and electrotransferred onto nitrocellulose membranes. Membranes were incubated with primary antibodies (MALT1, BCL-10, CYLD from Santa Cruz Biotechnologies, Santa Cruz, Calif.; A20 from eBioscience, San Diego, Calif.; phospho-IκB-α, IκB-α, c-REL, RELB from Cell Signaling, Danvers, Mass. and α-Tubulin from Sigma), followed by secondary antibodies conjugated to horseradish peroxidase, which were detected by chemiluminescence (Pierce, Thermo Scientific, Rockford, Ill.).
A general note: Immunoblotting shows a protein as a band on a membrane.

Assay [2] has as its system c-REL nuclear protein. Briefly: c-REL immunofluorescence in paraffinized xenograft tumor sections. Format: in vivo, mice. Particulars: IP 25 mg/kg/day. The source says:
(§2) Animals were sacrificed 24 hr after the fourteenth injection.
Paraffin-embedded tumor xenografts were sectioned, dewaxed and submitted to antigen retrieval. For IF-P, Alexa Fluor-488 conjugated secondary antibodies from Invitrogen where used and cell nuclei where counterstained with DAPI. Fluorescent images were taken using an Axiovert 200M fluorescent microscope (Carl Zeiss Inc., Thornwood, N.Y.). Oberkochen, Germany). For IHC, biotin-conjugated secondary antibodies where used. Then avidin/biotin peroxidase was applied to the slides (Vector Laboratories). Color was developed with diaminobenzoate chromogen peroxidase substrate (Vector) and counterstained with hematoxilin-eosyn. Pictures were obtained using an AxioCam (Carl Zeiss Inc.) camera attached to an AxioSkop II light microscope (Carl Zeiss Inc.). Samples were reviewed by a pathologist.

The test system of assay [3] is Caspase-3/7 activity. As to the kind of experiment: Caspase-3/7 activity or apoptosis in cell-based assays. Particulars: concentrations which suppress MALT1.
In assay [4] the test system is MALT1^WT NF-κB activation. Briefly: NF-κB reporter assay in 293T cells, PMA/ionomycin, BCL10 and MALT1 WT. Format: cell-based. To be noted: pre-treatment. The source says: Antigen receptor-mediated NF-κB signaling partly depends on MALT1 activity (Ruefli-Brasse et al., 2003; Ruland et al., 2003). […] First, 293T cells were transfected with the NF-κB reporter vector (NF-κB)5-luc2CP-pGL4 (harboring 5 copies of the NF-κB consensus response element and a destabilized Firefly luciferase) and TK-pRL control together with plasmids expressing BCL10 and either MALT1^WT or MALT1^C464A. […] HBL-1 was transfected with the reporter construct (NF-κB)5-luc2CP-pGL4 and TK-pRL control.
Reporter assays were performed in 293T cells seeded at a density of 2×10^5 cells per well of a 12-well dish. 100 ng of (NF-κB)5-Luc2CP-pGL4 and 10 ng of TK-Renilla internal control plasmid were cotransfected along with 25 ng of the indicated plasmids (MIGR1-MALT1^WT or MIGR1-MALT1^C464A and pcDNA4-Flag-Bcl10) using Lipofectamine 2000 (Invitrogen). Lysates were submitted to dual luciferase assays following manufacturer's protocol (Promega). In HBL-1, 5 μg of (NF-κB)5-Luc2CP-pGL4 and 50 ng of TK-Renilla internal control plasmid per 5×10^6 cells were cotransfected using nucleofection (Amaxa, Lonza, Basel, Switzerland). Forty-eight hours after transfection, cells were plated at a density of 5×10^4 cells per well of a 24-well plate and treated as indicated. Lysates were submitted to dual luciferase assays following manufacturer's protocol (Promega).
(In general: A reporter such as luciferase makes a cellular process visible.)

For assay [5], the system named is OCI-Ly1 xenografts. As to the kind of experiment: OCI-Ly1 xenograft in NOD-SCID mice. The class given is in vivo. Particulars: IP 25 mg/kg/day. Here is the method:
as §2
Eight-week old male SCID NOD.CB17-Prkdc^scid/J mice were subcutaneously injected with low-passage 10^7 human HBL-1, TMD8 or OCI-Ly1 cells. Treatment was administered by intra-peritoneal injection. Tumor volume was monitored by three-weekly digital calipering. All procedures followed US NIH protocols and were approved by the Animal Institute Committee of the Weill Cornell Medical College.
Eight-week old male SCID NOD.CB17-Prkdc^scid/J mice were purchased from Jackson Laboratories (Bar Harbor, Minn.) and housed in a clean environment. Mice were subcutaneously injected with low-passage 10^7 human TMD8 or OCI-Ly1 cells in 50% matrigel (BD Biosciences, #354234). Treatment was initiated when tumors reached an average size of 120 mm^3 (17 days post-transplantation). Drugs were reconstituted in DMSO and stored at −80° C. until used and were administered by intra-peritoneal injection. Tumor volume was monitored by three-weekly digital calipering (Fisher Scientific, Thermo Scientific, Rockford, Ill.) and calculated using the formula (smallest diameter^2×largest diameter)/2. Data were expressed as mean±SEM, and differences were considered statistically significant at p<0.05 by paired Student's t-test. […]

The subject of assay [6] is nuclear c-REL and p65. As to the kind of experiment: Western blots for c-REL and p65 in nuclear extracts of HBL-1 and TMD8 cells. The class given is cell-based, human. To be noted: 24 hr, 200 nM for HBL-1 and 500 nM for TMD8. Here is the method: MALT1 mediates c-REL translocation to the nucleus following BCR stimulation (Ferch et al., 2007). […] This selectivity towards c-REL had also been previously shown in MALT1 knockout mice and after MALT1 cleavage inhibition by the MALT1 blocking peptide Z-VRPR-FMK (Ferch et al., 2009; Ferch et al., 2007; Hailfinger et al., 2011).
as §1

Regarding `COCCOc1nc(-c2ccc(Cl)c(Cl)c2)n(-c2ccc(NC(=O)CCl)cc2)n1` [MI-2], the “MALT1-mediated cleavage of CYLD” value in assay [1] (HBL-1, increasing concentrations, 24 hr) is “dose-dependent decrease in MALT1-mediated cleavage”. Moreover, the “inhibition of MALT1 cleavage of CYLD” value in assay [1] (analogs 5 μM for 8 hr, Z-VRPR-FMK 50 μM as positive control) is reported as “most potent compound”. In assay [2], the “c-REL nuclear protein in tumors” value is reported as “reduced c-REL nuclear protein”. In addition, the “inhibition of Caspase-3/7 activity or apoptosis” value in assay [3] is “did not inhibit”. For the same compound, in assay [4], the “NF-κB induction by PMA/ionomycin stimulation” value was “significantly inhibited NF-κB induction”. The “tumor growth vs. vehicle” value in assay [5] (fourteen injections, p=0.47) was “no effect on the growth”. The “proliferation (Ki-67 staining)” value in assay [5] (p=1.0) is “no difference”. Further, in assay [6], the “nuclear c-REL (Western blot)” value is reported as “clear reduction of nuclear c-REL” and the “nuclear p65 (Western blot)” value was “did not affect p65 levels”.

For the origin of these results see patent US9592223B2, “Small molecule inhibitors of MALT1” (Cornell University, priority 2012, dated 2017).
